Assays:
A-549 cancer cells = assay: MTT-based cell viability assay, A-549; conditions: Homo sapiens, A549, 72 h, read-out: A-549 cancer cell toxicity GI50 ± SEM
Description: (§1) MCT1-expressing cells have an extraordinary energy demand and rely on pyruvate metabolism, through either lactate conversion or pyruvate consumption. Inhibition of MCT1 blocks lactate and pyruvate influx into cancer cells, which prevents their processing in the TCA cycle. Over time, the viability of cells exposed to an MCT1 inhibitor is impaired due to pyruvate deprivation, which is compensated by upregulating glucose metabolism—leading to an overconsumption of glucose. To confirm the antiproliferative nature of the indole derivatives, we investigated the compounds toward the MCT1-expressing cell lines A-549[14],[15] and MCF-7.[16] Cancer cell viability was assessed via a 3-(4,5-dimethylthiazol-2-yl)-2,5-diphenyltetrazolium bromide (MTT) assay, as reported earlier.[43]
(§2) To determine the growth inhibitory potential of compounds 17–32, […] of each compound either at concentrations between 1 and 100 μM (A-549 or MCF-7) or at 10 and 50 μM (NIH/3T3) was pipetted into colorless flat-bottom 96-well microplates. Thereafter, 180 μL of a cell suspension (5000 cells/well) of either A-549, MCF-7, or NIH/3T3 cells was added and subsequently kept for 72 h at 37 °C under a 5% CO2-humidified atmosphere. The cell viability as well as the GI50 values were determined as described above.[43]

MCT1 = target: T1, MCT1 (Homo sapiens, UniProt P53985); assay: functional 3-BP cell viability assay (MCT1 transport inhibition); type: cell-based; conditions: MCT1-expressing A-549 cells, 50 μM 3-BP, 72 h; read-out: MCT1 transport inhibition IC50 ± SEM
T1 construct: MCT1-expressing A-549 cells[14],[15] were exposed to the MCT1 substrate 3-BP, which becomes influxed by MCT1; endogenous in cells; host or cells: A-549 lung cancer cells (from NCCS, Pune)
T1 sequence (P53985 1-500): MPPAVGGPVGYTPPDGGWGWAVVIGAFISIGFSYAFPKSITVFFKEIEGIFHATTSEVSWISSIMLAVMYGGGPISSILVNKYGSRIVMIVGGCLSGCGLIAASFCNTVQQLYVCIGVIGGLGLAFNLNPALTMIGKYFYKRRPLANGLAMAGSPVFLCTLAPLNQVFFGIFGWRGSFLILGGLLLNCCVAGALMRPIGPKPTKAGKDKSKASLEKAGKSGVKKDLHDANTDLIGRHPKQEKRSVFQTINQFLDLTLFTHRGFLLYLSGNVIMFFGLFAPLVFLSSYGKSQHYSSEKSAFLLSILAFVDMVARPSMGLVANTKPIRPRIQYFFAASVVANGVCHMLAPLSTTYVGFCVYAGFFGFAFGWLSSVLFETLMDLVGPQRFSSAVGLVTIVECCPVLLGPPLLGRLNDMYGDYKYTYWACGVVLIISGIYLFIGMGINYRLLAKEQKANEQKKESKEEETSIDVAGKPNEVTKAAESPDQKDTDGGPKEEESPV
T1 sequence (P35613 140-385 partner limits assumed): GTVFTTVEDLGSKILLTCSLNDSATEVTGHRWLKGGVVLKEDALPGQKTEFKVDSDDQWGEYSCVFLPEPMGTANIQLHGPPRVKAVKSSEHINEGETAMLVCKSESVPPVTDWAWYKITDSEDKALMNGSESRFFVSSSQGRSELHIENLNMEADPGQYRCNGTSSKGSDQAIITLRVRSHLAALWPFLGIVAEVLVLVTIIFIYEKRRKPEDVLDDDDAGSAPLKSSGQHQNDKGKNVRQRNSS
Experimental: (§3) The inhibitory activity of indole derivatives against MCT1 was determined by applying a functional 3-bromopyruvate (3-BP) cell viability assay, as described in the literature[20],[39] with minor modifications. In short, MCT1-expressing A-549 cells[14],[15] were exposed to the MCT1 substrate 3-BP, which becomes influxed by MCT1. 3-BP is toxic, leading to decreased cell viability. Functional inhibition of MCT1 results in reduced intracellular 3-BP levels and, thus, enhanced cell viability compared to no inhibition. […] Table 1 provides the half-maximal inhibition concentration (IC50) values of compounds 17–32.
(§4) A functional 3-BP cytotoxicity assay was conducted as described in the literature[20],[39] with minor modifications. Dilution series of compounds 17–32 between 1 nM and 1 μM were prepared in DPBS (Cell Clone, Genetix Biotech Asia, New Delhi India), and 10 μL of each concentration was pipetted into a colorless flat-bottom 96-well microplate (SPL Life Sciences, Gyeonggi-do, Republic of Korea). One hundred and eighty microliters of a cell suspension (5000 cells/well) of A-549 cells was added, and subsequently, 10 μL of 3-BP was added at a concentration of 1 mM (final concentration per well: 50 μM). The plate was kept for 72 h at 37 °C under a 5% CO2-humidified atmosphere. Cell viability was determined as described before[43] by adding 20 μL of a 5 mg/mL solution of MTT to each well and further incubation for 1 h. Eventually, the supernatant was removed and 100 μL of DMSO was added to each well. The absorbance was spectrophotometrically determined at 570 nm using a SpectraMax iD3 multi-mode microplate reader (Molecular Devices, San Jose, CA) with a background correction (690 nm). The determined absorbance values were correlated to the logarithmic concentrations of compounds 17–32, and IC50 values were calculated applying nonlinear regression using GraphPad Prism (version 8.4.0., San Diego, CA).

ABCB1 = ABCB1 (Homo sapiens, UniProt P08183); assay: calcein AM assay, ABCB1-expressing A2780/ADR cells; conditions: screening at 10 μM, inhibitor if 20% (+SEM) reached
Description: (§5) To provide a detailed picture of the pharmacological profile of the indole derivatives, we investigated their modulatory nature on the most prominent ABC transporters ABCB1 (P-glycoprotein, P-gp), ABCC1, (multidrug resistance-associated protein 1, MRP1), and ABCG2 (breast cancer resistance protein, BCRP). Here, we conducted calcein AM (ABCB1),[2],[52]−[59] daunorubicin (ABCC1),[52],[58]−[60] and pheophorbide A (ABCG2)[2],[52]−[60] assays using ABCB1-expressing A2780/ADR, ABCC1-expressing H69AR, and ABCG2-expressing MDCK II BCRP cells, respectively.
(§6) The calcein AM (ABCB1),[2],[52]−[59] daunorubicin (ABCB1[52],[60] and ABCC1[52],[58]−[60]), and pheophorbide A (ABCG2)[2],[52]−[60] assays were conducted as reported earlier. […] The data was processed using GraphPad Prism version 8.4.0, and IC50 values were determined, applying three- or four-parameter logistic equations, whatever was statistically preferred.

MCF-7 cancer cells = assay: MTT-based cell viability assay, MCF-7; conditions: Homo sapiens, MCF7, 72 h, read-out: MCF-7 cancer cell toxicity GI50 ± SEM
Description: as §1, §2

ABCC1 = ABCC1 (Homo sapiens, UniProt P33527); assay: daunorubicin assay, ABCC1-expressing H69AR cells; conditions: screening at 10 μM, inhibitor if 20% (+SEM) reached
Description: as §5, §6

A-549 cells = assay: 3-BP toxicity against A-549 cells (MTT); type: cell-based
Experimental: as §3, §4

Chain of ABCC1 (P33527 whole entry): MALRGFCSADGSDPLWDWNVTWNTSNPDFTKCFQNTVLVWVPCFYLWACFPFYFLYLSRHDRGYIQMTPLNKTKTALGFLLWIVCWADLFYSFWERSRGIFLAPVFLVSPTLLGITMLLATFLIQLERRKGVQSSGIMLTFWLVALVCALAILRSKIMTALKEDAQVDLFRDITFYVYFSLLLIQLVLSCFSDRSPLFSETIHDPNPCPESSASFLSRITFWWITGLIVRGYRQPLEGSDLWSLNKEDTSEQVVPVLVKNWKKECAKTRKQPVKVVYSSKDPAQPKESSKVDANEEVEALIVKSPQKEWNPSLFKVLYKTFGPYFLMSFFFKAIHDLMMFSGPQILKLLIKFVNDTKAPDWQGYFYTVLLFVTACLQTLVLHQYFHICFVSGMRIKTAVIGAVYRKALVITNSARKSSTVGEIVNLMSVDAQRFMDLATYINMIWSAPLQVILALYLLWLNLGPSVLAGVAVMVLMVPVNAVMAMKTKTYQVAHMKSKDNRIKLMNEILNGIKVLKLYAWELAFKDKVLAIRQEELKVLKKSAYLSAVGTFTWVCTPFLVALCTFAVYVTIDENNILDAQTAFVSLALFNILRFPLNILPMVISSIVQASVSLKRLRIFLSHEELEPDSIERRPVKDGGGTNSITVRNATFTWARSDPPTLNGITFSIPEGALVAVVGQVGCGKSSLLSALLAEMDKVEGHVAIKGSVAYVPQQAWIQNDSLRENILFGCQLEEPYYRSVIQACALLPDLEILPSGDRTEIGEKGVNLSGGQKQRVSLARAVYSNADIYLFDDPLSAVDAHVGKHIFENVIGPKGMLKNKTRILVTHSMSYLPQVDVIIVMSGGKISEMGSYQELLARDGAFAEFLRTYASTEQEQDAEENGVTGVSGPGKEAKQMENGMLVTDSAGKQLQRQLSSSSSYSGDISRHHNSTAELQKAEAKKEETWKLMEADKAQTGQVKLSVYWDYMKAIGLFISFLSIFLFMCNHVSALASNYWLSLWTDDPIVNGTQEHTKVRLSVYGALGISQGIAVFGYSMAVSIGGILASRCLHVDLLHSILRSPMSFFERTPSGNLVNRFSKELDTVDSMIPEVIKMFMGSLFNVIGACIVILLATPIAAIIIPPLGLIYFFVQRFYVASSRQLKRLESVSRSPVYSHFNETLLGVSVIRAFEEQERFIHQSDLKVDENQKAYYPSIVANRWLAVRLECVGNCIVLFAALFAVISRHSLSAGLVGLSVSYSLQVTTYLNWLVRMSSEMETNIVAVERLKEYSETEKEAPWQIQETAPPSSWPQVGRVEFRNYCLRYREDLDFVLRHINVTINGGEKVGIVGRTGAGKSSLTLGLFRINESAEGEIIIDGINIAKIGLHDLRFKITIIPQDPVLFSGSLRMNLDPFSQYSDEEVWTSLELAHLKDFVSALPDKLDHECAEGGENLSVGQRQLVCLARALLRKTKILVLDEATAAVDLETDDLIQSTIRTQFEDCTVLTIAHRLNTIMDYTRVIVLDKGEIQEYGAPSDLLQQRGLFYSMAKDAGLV
Chain of ABCB1 (P08183 whole entry): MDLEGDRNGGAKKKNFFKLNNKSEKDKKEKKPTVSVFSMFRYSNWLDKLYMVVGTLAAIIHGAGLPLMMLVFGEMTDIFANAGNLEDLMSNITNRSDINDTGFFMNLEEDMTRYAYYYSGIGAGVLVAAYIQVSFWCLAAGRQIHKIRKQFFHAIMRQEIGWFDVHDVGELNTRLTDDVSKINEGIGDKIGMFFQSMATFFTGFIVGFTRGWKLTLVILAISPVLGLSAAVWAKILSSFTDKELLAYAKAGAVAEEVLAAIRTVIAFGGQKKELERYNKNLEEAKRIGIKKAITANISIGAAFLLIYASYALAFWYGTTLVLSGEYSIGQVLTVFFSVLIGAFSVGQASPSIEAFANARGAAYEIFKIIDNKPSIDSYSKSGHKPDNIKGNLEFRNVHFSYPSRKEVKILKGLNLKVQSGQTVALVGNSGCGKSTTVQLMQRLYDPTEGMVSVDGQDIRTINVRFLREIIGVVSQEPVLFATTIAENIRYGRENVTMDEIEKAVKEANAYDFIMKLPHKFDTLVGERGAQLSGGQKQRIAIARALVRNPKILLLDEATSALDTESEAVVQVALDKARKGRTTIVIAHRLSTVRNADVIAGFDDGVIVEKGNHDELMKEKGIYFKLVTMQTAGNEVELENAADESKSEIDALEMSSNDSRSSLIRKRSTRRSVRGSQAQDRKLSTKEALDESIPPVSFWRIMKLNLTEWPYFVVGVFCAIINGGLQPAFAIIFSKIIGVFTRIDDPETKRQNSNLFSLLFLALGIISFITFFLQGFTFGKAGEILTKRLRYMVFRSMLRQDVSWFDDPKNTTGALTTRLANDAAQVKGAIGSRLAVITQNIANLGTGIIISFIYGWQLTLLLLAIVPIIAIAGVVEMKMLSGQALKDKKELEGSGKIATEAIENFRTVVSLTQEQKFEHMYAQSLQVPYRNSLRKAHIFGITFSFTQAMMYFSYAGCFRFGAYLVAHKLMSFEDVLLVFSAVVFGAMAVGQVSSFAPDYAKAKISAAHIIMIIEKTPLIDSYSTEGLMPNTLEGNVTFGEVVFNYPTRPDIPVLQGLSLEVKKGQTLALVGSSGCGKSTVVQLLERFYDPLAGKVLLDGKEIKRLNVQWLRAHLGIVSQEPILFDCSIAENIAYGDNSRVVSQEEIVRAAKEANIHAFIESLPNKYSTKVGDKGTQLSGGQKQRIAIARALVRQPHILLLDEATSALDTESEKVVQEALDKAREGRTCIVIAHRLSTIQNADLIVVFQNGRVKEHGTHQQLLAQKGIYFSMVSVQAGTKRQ

SMILES	GI50 (A-549 cancer cells)	IC50 (MCT1)	ABCB1 inhibition (ABCB1)	GI50 (MCF-7 cancer cells)	ABCC1 inhibition (ABCC1)	GI90 of 3-BP (A-549 cells; A-549 cells)	GI50 (A-549 cells; Homo sapiens, A549, read-out: half-maximal growth inhibition (GI50) of 3-BP, A-549 cells)	inhibition at 50 µM (A-549 cells; Homo sapiens, A549, 50 μM 3-BP, read-out: inhibition of A-549 cell growth)
COC(=O)/C(C#N)=C/c1cn(CC(=O)Nc2ccccc2)c2ccccc12 [Compound 17, Methyl-2-cyano-3-(1-(2-oxo-2-(phenylamino)ethyl)-1H-indol-3-yl) Acrylate]	29.2 ± 0.2 µM	0.314 ± 0.047 µM	X (Compounds were considered as inhibitors if they reached 20% (+SEM) inhibition compared to the reference inhibitors 33–35; X = fulfilled)	15.4 ± 0.3 µM				
COC(=O)/C(C#N)=C/c1cn(CC(=O)Nc2ccc(C)cc2)c2ccccc12 [Compound 21, Methyl-2-cyano-3-(1-(2-oxo-2-(p-tolylamino)ethyl)-1H-indol-3-yl) Acrylate]	14 ± 0.5 µM	0.112 ± 0.01 µM	X (Compounds were considered as inhibitors if they reached 20% (+SEM) inhibition compared to the reference inhibitors 33–35; X = fulfilled)	13.9 ± 0.1 µM	X (Compounds were considered as inhibitors if they reached 20% (+SEM) inhibition compared to the reference inhibitors 33–35; X = fulfilled)			
COC(=O)/C(C#N)=C/c1cn(CC(=O)Nc2ccc(F)cc2)c2ccccc12 [Compound 25, Methyl-2-cyano-3-(1-(2-((4-fluorophenyl)amino)-2-oxoethyl)-1H-indol-3-yl) Acrylate]	22 ± 0.6 µM	0.793 ± 0.138 µM	X (Compounds were considered as inhibitors if they reached 20% (+SEM) inhibition compared to the reference inhibitors 33–35; X = fulfilled)	15.1 ± 0.3 µM	X (Compounds were considered as inhibitors if they reached 20% (+SEM) inhibition compared to the reference inhibitors 33–35; X = fulfilled)			
COC(=O)/C(C#N)=C/c1cn(CC(=O)Nc2ccc3ccccc3c2)c2ccccc12 [Compound 19, Methyl-2-cyano-3-(1-(2-(naphthalen-2-ylamino)-2-oxoethyl)-1H-indol-3-yl) Acrylate]	26.9 ± 0.3 µM	0.109 ± 0.003 µM	X (Compounds were considered as inhibitors if they reached 20% (+SEM) inhibition compared to the reference inhibitors 33–35; X = fulfilled)	15.5 ± 1.3 µM				
COC(=O)/C(C#N)=C/c1cn(CC(=O)Nc2ccc(Cl)cc2)c2ccccc12 [Compound 26, Methyl-3-(1-(2-((4-chlorophenyl)amino)-2-oxoethyl)-1H-indol-3-yl)-2-cyanoacrylate]	21 ± 0.4 µM	0.196 ± 0.005 µM	X (Compounds were considered as inhibitors if they reached 20% (+SEM) inhibition compared to the reference inhibitors 33–35; X = fulfilled)	10.7 ± 0.4 µM	X (Compounds were considered as inhibitors if they reached 20% (+SEM) inhibition compared to the reference inhibitors 33–35; X = fulfilled)			
COC(=O)/C(C#N)=C/c1cn(CC(=O)Nc2cccnc2)c2ccccc12 [Compound 32, Methyl-2-cyano-3-(1-(2-oxo-2-(pyridin-3-ylamino)ethyl)-1H-indol-3-yl) Acrylate]	19.2 ± 0.4 µM	0.109 ± 0.003 µM	X (Compounds were considered as inhibitors if they reached 20% (+SEM) inhibition compared to the reference inhibitors 33–35; X = fulfilled)	11.1 ± 0.2 µM	X (Compounds were considered as inhibitors if they reached 20% (+SEM) inhibition compared to the reference inhibitors 33–35; X = fulfilled)			
COC(=O)/C(C#N)=C/c1cn(CC(=O)Nc2c(Cl)cccc2Cl)c2ccccc12 [Compound 27, Methyl-2-cyano-3-(1-(2-((2,6-dichlorophenyl)amino)-2-oxoethyl)-1H-indol-3-yl) Acrylate]	25 ± 0.5 µM	0.109 ± 0.002 µM	X (Compounds were considered as inhibitors if they reached 20% (+SEM) inhibition compared to the reference inhibitors 33–35; X = fulfilled)	17.3 ± 0.6 µM	X (Compounds were considered as inhibitors if they reached 20% (+SEM) inhibition compared to the reference inhibitors 33–35; X = fulfilled)			
COC(=O)/C(C#N)=C/c1cn(CC(=O)Nc2ccccn2)c2ccccc12 [Compound 29, Methyl-2-cyano-3-(1-(2-oxo-2-(pyridin-2-ylamino)ethyl)-1H-indol-3-yl) Acrylate]	17.1 ± 0.4 µM	0.198 ± 0.004 µM		4.32 ± 0.14 µM				
COC(=O)/C(C#N)=C/c1cn(CC(=O)Nc2ccc(Br)cc2)c2ccccc12 [Compound 28, Methyl-3-(1-(2-((4-bromophenyl)amino)-2-oxoethyl)-1H-indol-3-yl)-2-cyanoacrylate]	19.2 ± 0.2 µM	0.287 ± 0.047 µM	X (Compounds were considered as inhibitors if they reached 20% (+SEM) inhibition compared to the reference inhibitors 33–35; X = fulfilled)	9.99 ± 0.46 µM				
COC(=O)/C(C#N)=C/c1cn(CC(=O)Nc2ccccc2C)c2ccccc12 [Compound 20, Methyl-2-cyano-3-(1-(2-oxo-2-(o-tolylamino)ethyl)-1H-indol-3-yl) Acrylate]	28.3 ± 0.1 µM	0.105 ± 0.006 µM	X (Compounds were considered as inhibitors if they reached 20% (+SEM) inhibition compared to the reference inhibitors 33–35; X = fulfilled)	15.3 µM	X (Compounds were considered as inhibitors if they reached 20% (+SEM) inhibition compared to the reference inhibitors 33–35; X = fulfilled)			
O=C(O)C(=O)CBr [3-BP, 3-bromopyruvate]						49.8 ± 0.6 µM	25 ± 0.4 µM	≥ 90%
COC(=O)/C(C#N)=C/c1cn(CC(=O)Nc2cccc3ccccc23)c2ccccc12 [Compound 18, Methyl-2-cyano-3-(1-(2-(naphthalen-1-ylamino)-2-oxoethyl)-1H-indol-3-yl) Acrylate]	21.5 ± 0.4 µM	0.193 ± 0.01 µM	X (Compounds were considered as inhibitors if they reached 20% (+SEM) inhibition compared to the reference inhibitors 33–35; X = fulfilled)	15.4 ± 0.5 µM				

Source: PMC9841531, “Indole Derivatives as New Structural Class of Potent and Antiproliferative Inhibitors of Monocarboxylate Transporter 1 (MCT1; SLC16A1)” (Journal of Medicinal Chemistry, 2022)
